“And” between values parts separate entries of the source, which are not always exact repeats. Equal values may be shown once.
Legend:
Assay type in all cases: in vitro ADME
Settings in all cases: for Enzyme activity, Mean: mean of Well-1 to Well-4
CYP2D6 = biological target: T1, CYP2D6 (Homo sapiens, UniProt P10635); test: Metabolic assay, cocktail substrate method (bufuralol to 1’-hydroxybufuralol)
T1 construct: host or cells: PXB-cells (icHep: JFC, HUM181001B; sandwich culture: JFC)
Protocol: (§1) The metabolic activity of icHep and sandwich-cultured PXB-cells was measured using the cocktail substrate method of drug-metabolizing enzymes. The components of the cocktail are summarized in Supplementary Table 1. Assays were initiated by treating cells with TB containing cocktail substrates. Time point of each substrate was set when a linear increase in its metabolite production was observed. Concentrations of metabolites produced in the medium were measured by liquid chromatography-mass spectrometry (LC-MS/MS).

CYP3A4 = biological target: T2, CYP3A4 (Homo sapiens, UniProt P08684); test: Metabolic assay, cocktail substrate method (midazolam to 1’-hydroxymidazolam)
T2 construct: host or cells: PXB-cells (icHep: JFC, HUM181001B; sandwich culture: JFC)
Protocol: as §1

CYP2E1 = biological target: T3, CYP2E1 (Homo sapiens, UniProt P05181); test: Metabolic assay, cocktail substrate method (chlorzoxazone to 6’-hydroxychlorzoxazone)
T3 construct: host or cells: PXB-cells (icHep: JFC, HUM181001B; sandwich culture: JFC)
Protocol: as §1

[1] = PXB-cells (JFC), incubation time 15 min, single wells
[2] = PXB-cells (JFC), incubation time 30 min, single wells
[3] = PXB-cells (JFC), incubation time 45 min, single wells
[4] = PXB-cells (JFC), incubation time 60 min, single wells
[5] = PXB-cells (JFC), incubation time 90 min, single wells
[6] = PXB-cells (JFC), rate per single well
[7] = icHep (HUM18100B), incubation time 15 min, single wells
[8] = icHep (HUM18100B), incubation time 30 min, single wells
[9] = icHep (HUM18100B), incubation time 45 min, single wells
[10] = icHep (HUM18100B), incubation time 60 min, single wells
[11] = icHep (HUM18100B), incubation time 90 min, single wells
[12] = icHep (HUM18100B), rate per single well
[13] = icHep (JFC), incubation time 15 min, single wells
[14] = icHep (JFC), incubation time 30 min, single wells
[15] = icHep (JFC), incubation time 45 min, single wells
[16] = icHep (JFC), incubation time 60 min, single wells
[17] = icHep (JFC), incubation time 90 min, single wells
[18] = icHep (JFC), rate per single well

T3 sequence (P05181 whole entry): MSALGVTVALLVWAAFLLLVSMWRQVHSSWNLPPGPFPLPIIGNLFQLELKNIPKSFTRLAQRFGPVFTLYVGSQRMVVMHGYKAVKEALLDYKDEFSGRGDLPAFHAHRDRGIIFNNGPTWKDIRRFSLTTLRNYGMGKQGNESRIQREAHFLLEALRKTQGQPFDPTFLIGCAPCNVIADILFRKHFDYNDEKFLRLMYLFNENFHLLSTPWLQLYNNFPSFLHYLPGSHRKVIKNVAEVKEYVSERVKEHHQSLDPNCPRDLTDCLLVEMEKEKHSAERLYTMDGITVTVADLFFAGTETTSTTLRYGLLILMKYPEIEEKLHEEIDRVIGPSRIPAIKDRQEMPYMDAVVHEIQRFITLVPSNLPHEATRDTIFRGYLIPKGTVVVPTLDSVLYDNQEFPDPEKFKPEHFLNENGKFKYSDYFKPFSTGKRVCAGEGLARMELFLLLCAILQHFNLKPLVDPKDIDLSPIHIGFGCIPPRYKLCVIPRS
T2 sequence (P08684 whole entry): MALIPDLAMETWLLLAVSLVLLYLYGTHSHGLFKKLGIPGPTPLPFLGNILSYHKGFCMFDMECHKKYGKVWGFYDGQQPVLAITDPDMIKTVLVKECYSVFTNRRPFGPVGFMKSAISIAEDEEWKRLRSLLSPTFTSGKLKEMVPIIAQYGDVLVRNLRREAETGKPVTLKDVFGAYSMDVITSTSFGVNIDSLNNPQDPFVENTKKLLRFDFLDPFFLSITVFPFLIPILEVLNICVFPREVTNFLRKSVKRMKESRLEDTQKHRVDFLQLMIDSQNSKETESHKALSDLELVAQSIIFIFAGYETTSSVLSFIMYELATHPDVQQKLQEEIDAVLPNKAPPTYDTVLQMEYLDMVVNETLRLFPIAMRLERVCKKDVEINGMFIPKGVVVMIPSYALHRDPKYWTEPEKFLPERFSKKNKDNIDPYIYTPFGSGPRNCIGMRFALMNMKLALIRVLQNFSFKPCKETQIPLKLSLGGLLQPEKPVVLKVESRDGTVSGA
T1 sequence (P10635 whole entry): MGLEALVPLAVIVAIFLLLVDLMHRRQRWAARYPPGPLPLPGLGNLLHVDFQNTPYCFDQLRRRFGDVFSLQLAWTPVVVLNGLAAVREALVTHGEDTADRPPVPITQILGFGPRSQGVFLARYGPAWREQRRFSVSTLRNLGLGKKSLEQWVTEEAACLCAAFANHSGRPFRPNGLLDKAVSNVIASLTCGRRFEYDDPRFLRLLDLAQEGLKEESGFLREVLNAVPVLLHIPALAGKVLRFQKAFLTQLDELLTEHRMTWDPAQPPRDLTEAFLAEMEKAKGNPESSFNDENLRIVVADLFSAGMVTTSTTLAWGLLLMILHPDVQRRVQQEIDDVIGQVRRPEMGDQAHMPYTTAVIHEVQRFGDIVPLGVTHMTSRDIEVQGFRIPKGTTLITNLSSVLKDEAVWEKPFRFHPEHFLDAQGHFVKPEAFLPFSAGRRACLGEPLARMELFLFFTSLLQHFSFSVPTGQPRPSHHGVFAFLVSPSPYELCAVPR

## CC(O)c1cccc2cc(C(O)CNC(C)(C)C)oc12 (centres unmarked) [1'-hydroxybufuralol]
CYP2D6; [1]
  Enzyme activity: 16.9358 pmol/106 cells and 20.2476 pmol/106 cells and 18.9803 pmol/106 cells and 17.4477 pmol/106 cells
CYP2D6; [2]
  Enzyme activity: 29.3048 pmol/106 cells and 32.2567 pmol/106 cells and 32.3369 pmol/106 cells and 36.5879 pmol/106 cells
CYP2D6; [3]
  Enzyme activity: 57.2694 pmol/106 cells and 67.3705 pmol/106 cells and 63.1354 pmol/106 cells and 57.1013 pmol/106 cells
CYP2D6; [4]
  Enzyme activity: 88.7619 pmol/106 cells and 86.626 pmol/106 cells and 83.8364 pmol/106 cells and 89.8476 pmol/106 cells
CYP2D6; [5]
  Enzyme activity: 79.3357 pmol/106 cells and 85.9811 pmol/106 cells and 83.3593 pmol/106 cells and 74.6468 pmol/106 cells
CYP2D6; PXB-cells (JFC)
  Enzyme activity, Mean: 1.57 pmol/min/106 cells
CYP2D6; [6]
  Enzyme activity: 1.62 pmol/min/106 cells and 1.56 pmol/min/106 cells and 1.50 pmol/min/106 cells and 1.58 pmol/min/106 cells
CYP2D6; [7]
  Enzyme activity: 20.6578 pmol/106 cells and 24.0318 pmol/106 cells and 24.5391 pmol/106 cells and 24.1229 pmol/106 cells
CYP2D6; [8]
  Enzyme activity: 38.6716 pmol/106 cells and 36.9398 pmol/106 cells and 37.9846 pmol/106 cells and 33.7885 pmol/106 cells
CYP2D6; [9]
  Enzyme activity: 56.8381 pmol/106 cells and 54.0547 pmol/106 cells and 51.5492 pmol/106 cells and 53.9902 pmol/106 cells
CYP2D6; [10]
  Enzyme activity: 80.7041 pmol/106 cells and 78.1674 pmol/106 cells and 75.41 pmol/106 cells and 73.212 pmol/106 cells
CYP2D6; [11]
  Enzyme activity: 107.294 pmol/106 cells and 123.561 pmol/106 cells and 104.675 pmol/106 cells and 114.288 pmol/106 cells
CYP2D6; icHep (HUM18100B)
  Enzyme activity, Mean: 1.33 pmol/min/106 cells
CYP2D6; [12]
  Enzyme activity: 1.40 pmol/min/106 cells and 1.37 pmol/min/106 cells and 1.25 pmol/min/106 cells and 1.31 pmol/min/106 cells
CYP2D6; [13]
  Enzyme activity: 27.4857 pmol/106 cells and 27.0951 pmol/106 cells and 24.9076 pmol/106 cells and 26.1443 pmol/106 cells
CYP2D6; [14]
  Enzyme activity: 41.2873 pmol/106 cells and 33.111 pmol/106 cells and 48.4523 pmol/106 cells and 44.4518 pmol/106 cells
CYP2D6; [15]
  Enzyme activity: 63.4972 pmol/106 cells and 59.7018 pmol/106 cells and 65.0037 pmol/106 cells and 67.8302 pmol/106 cells
CYP2D6; [16]
  Enzyme activity: 89.1933 pmol/106 cells and 91.8156 pmol/106 cells and 102.797 pmol/106 cells and 101.548 pmol/106 cells
CYP2D6; [17]
  Enzyme activity: 106.28 pmol/106 cells and 107.567 pmol/106 cells and 125.014 pmol/106 cells and 113.156 pmol/106 cells
CYP2D6; icHep (JFC)
  Enzyme activity, Mean: 1.55 pmol/min/106 cells
CYP2D6; [18]
  Enzyme activity: 1.43 pmol/min/106 cells and 1.69 pmol/min/106 cells and 1.64 pmol/min/106 cells and 1.42 pmol/min/106 cells

## OCc1ncc2n1-c1ccc(Cl)cc1C(c1ccccc1F)=NC2 [1'-hydroxymidazolam]
CYP3A4; [1]
  Enzyme activity: 85.9964 pmol/106 cells and 107.28 pmol/106 cells and 107.269 pmol/106 cells and 94.4354 pmol/106 cells
CYP3A4; [2]
  Enzyme activity: 157.896 pmol/106 cells and 182.793 pmol/106 cells and 221.326 pmol/106 cells and 195.956 pmol/106 cells
CYP3A4; [3]
  Enzyme activity: 229.127 pmol/106 cells and 265.395 pmol/106 cells and 205.135 pmol/106 cells and 181.378 pmol/106 cells
CYP3A4; [4]
  Enzyme activity: 216.024 pmol/106 cells and 232.078 pmol/106 cells and 207.606 pmol/106 cells and 244.165 pmol/106 cells
CYP3A4; [5]
  Enzyme activity: 251.177 pmol/106 cells and 288.431 pmol/106 cells and 316.537 pmol/106 cells and 214.43 pmol/106 cells
CYP3A4; PXB-cells (JFC)
  Enzyme activity, Mean: 6.05 pmol/min/106 cells
CYP3A4; [6]
  Enzyme activity: 4.79 pmol/min/106 cells and 5.03 pmol/min/106 cells and 7.60 pmol/min/106 cells and 6.77 pmol/min/106 cells
CYP3A4; [7]
  Enzyme activity: 124.221 pmol/106 cells and 126.279 pmol/106 cells and 141.412 pmol/106 cells and 115.91 pmol/106 cells
CYP3A4; [8]
  Enzyme activity: 259.113 pmol/106 cells and 258.447 pmol/106 cells and 251.469 pmol/106 cells and 277.435 pmol/106 cells
CYP3A4; [9]
  Enzyme activity: 382.492 pmol/106 cells and 333.832 pmol/106 cells and 305.042 pmol/106 cells and 320.283 pmol/106 cells
CYP3A4; [10]
  Enzyme activity: 439.172 pmol/106 cells and 380.966 pmol/106 cells and 417.242 pmol/106 cells and 349.083 pmol/106 cells
CYP3A4; [11]
  Enzyme activity: 536.397 pmol/106 cells and 514.134 pmol/106 cells and 491.294 pmol/106 cells and 551.51 pmol/106 cells
CYP3A4; icHep (HUM18100B)
  Enzyme activity, Mean: 8.98 pmol/min/106 cells
CYP3A4; [12]
  Enzyme activity: 8.99 pmol/min/106 cells and 8.81 pmol/min/106 cells and 7.34 pmol/min/106 cells and 10.8 pmol/min/106 cells
CYP3A4; [13]
  Enzyme activity: 99.4818 pmol/106 cells and 103.678 pmol/106 cells and 120.741 pmol/106 cells and 92.847 pmol/106 cells
CYP3A4; [14]
  Enzyme activity: 252.368 pmol/106 cells and 242.904 pmol/106 cells and 185.11 pmol/106 cells and 190.476 pmol/106 cells
CYP3A4; [15]
  Enzyme activity: 266.706 pmol/106 cells and 248.159 pmol/106 cells and 239.281 pmol/106 cells and 225.504 pmol/106 cells
CYP3A4; [16]
  Enzyme activity: 273.171 pmol/106 cells and 272.05 pmol/106 cells and 245.256 pmol/106 cells and 275.122 pmol/106 cells
CYP3A4; [17]
  Enzyme activity: 330.978 pmol/106 cells and 294.591 pmol/106 cells and 323.573 pmol/106 cells and 259.768 pmol/106 cells
CYP3A4; icHep (JFC)
  Enzyme activity, Mean: 7.57 pmol/min/106 cells

## O=c1[nH]c2cc(Cl)c(O)cc2o1 [6'-hydroxychlorzoxazone]
CYP2E1; [1]
  Enzyme activity: 2.306 pmol/106 cells and 2.95 pmol/106 cells and 3.355 pmol/106 cells and 2.895 pmol/106 cells
CYP2E1; [2]
  Enzyme activity: 5.44 pmol/106 cells and 5.421 pmol/106 cells and 6.357 pmol/106 cells and 6.2485 pmol/106 cells
CYP2E1; [3]
  Enzyme activity: 6.903 pmol/106 cells and 8.029 pmol/106 cells and 8.51 pmol/106 cells and 7.254 pmol/106 cells
CYP2E1; [4]
  Enzyme activity: 7.3761 pmol/106 cells and 7.959 pmol/106 cells and 8.112 pmol/106 cells and 7.339 pmol/106 cells
CYP2E1; [5]
  Enzyme activity: 7.477 pmol/106 cells and 10.4196 pmol/106 cells and 8.199 pmol/106 cells and 8.482 pmol/106 cells
CYP2E1; PXB-cells (JFC)
  Enzyme activity, Mean: 0.160 pmol/min/106 cells
CYP2E1; [6]
  Enzyme activity: 0.153 pmol/min/106 cells and 0.169 pmol/min/106 cells and 0.172 pmol/min/106 cells and 0.145 pmol/min/106 cells
CYP2E1; [7]
  Enzyme activity: 10.0765 pmol/106 cells and 9.906 pmol/106 cells and 11.3983 pmol/106 cells and 9.755 pmol/106 cells
CYP2E1; [8]
  Enzyme activity: 22.452 pmol/106 cells and 22.028 pmol/106 cells and 22.1618 pmol/106 cells and 20.005 pmol/106 cells
CYP2E1; [9]
  Enzyme activity: 33.1164 pmol/106 cells and 28.7079 pmol/106 cells and 30.6951 pmol/106 cells and 27.4528 pmol/106 cells
CYP2E1; [10]
  Enzyme activity: 42.0307 pmol/106 cells and 37.5801 pmol/106 cells and 42.224 pmol/106 cells and 33.7793 pmol/106 cells
CYP2E1; [11]
  Enzyme activity: 67.3851 pmol/106 cells and 64.4144 pmol/106 cells and 55.8641 pmol/106 cells and 56.1231 pmol/106 cells
CYP2E1; icHep (HUM18100B)
  Enzyme activity, Mean: 0.628 pmol/min/106 cells
CYP2E1; [12]
  Enzyme activity: 0.710 pmol/min/106 cells and 0.598 pmol/min/106 cells and 0.673 pmol/min/106 cells and 0.530 pmol/min/106 cells
CYP2E1; [13]
  Enzyme activity: 2.771 pmol/106 cells and 3.158 pmol/106 cells and 3.038 pmol/106 cells and 3.018 pmol/106 cells
CYP2E1; [14]
  Enzyme activity: 4.046 pmol/106 cells and 4.392 pmol/106 cells and 5.788 pmol/106 cells and 6.302 pmol/106 cells
CYP2E1; [15]
  Enzyme activity: 8.107 pmol/106 cells and 7.33 pmol/106 cells and 8.049 pmol/106 cells and 8.219 pmol/106 cells
CYP2E1; [16]
  Enzyme activity: 8.619 pmol/106 cells and 8.336 pmol/106 cells and 6.8 pmol/106 cells and 10.6833 pmol/106 cells
CYP2E1; [17]
  Enzyme activity: 10.5593 pmol/106 cells and 9.487 pmol/106 cells and 8.477 pmol/106 cells and 10.9673 pmol/106 cells
CYP2E1; icHep (JFC)
  Enzyme activity, Mean: 0.164 pmol/min/106 cells
CYP2E1; [18]
  Enzyme activity: 0.178 pmol/min/106 cells and 0.139 pmol/min/106 cells and 0.167 pmol/min/106 cells and 0.173 pmol/min/106 cells
